In patent US12583895B2, “Polypeptides for restoring endothelial function and methods of use thereof” (Vanderbilt University, priority 2019, dated 2026):
Entries after “also recorded” stand apart in the source; their conditions may differ. Non-standard residues stand in square brackets, D forms with d. No end group written: not given here. pS = N[C@@H](COP(=O)(O)O)C(=O)O

Tested on: rat aorta
Assay: Endothelial-dependent relaxation of rat aorta after acidosis (normal saline) injury
Assay type: cell-based
Conditions: NiPp 500 μM 30 min pretreatment in PL, then NS with NiPp 500 μM 2 h
Description: Freshly isolated rat aorta (RA) was cut into rings and then pretreated in the absence or presence of NiPp (500 μM) in PL for 30 min. Tissue rings were then transferred to normal saline (NS) to induce injury in the absence or presence of NiPp (500 μM) and continued incubation for 2 h at room temperature. After treatments, RA were suspended in the muscle bath, contracted with PE and then treated with escalating doses of carbachol (CCH; 10^−8 to 10^−5 M). The percent relaxation was determined as a change to the maximal PE-induced contraction. n=5-7 rats. *p<0.05 in two-way ANOVA with Tukey post-test. NiPp restores NS-induced endothelial dysfunction in RA.
Tissue rings were then transferred to NS and continued incubation in the absence or presence of NiPp (500 μM) for 2 h at room temperature. Control rings (Ctrl) were incubated in PL for 2.5 h. […] The percent relaxation was determined as a change to the maximal PE-induced contraction. […] Data are expressed as mean±SD. […]
This produced the maximal force tension relationship as previously described. […] Contractile responses were defined by stress, calculated using force generated by tissues as follows: stress (×10^5 N/m^2)=force (g)×0.0987/area, where area=wet weight (mg)/at maximal length (mm)]/1.055.
Relaxation was calculated as percent change in stress compared to the maximal PE-induced contraction (set as 100%). […]

YARAAARQARASPAARRA(pS)AILPG (YARAAARQARASPAARRA[pS]AILPG) [NiPp, Cell-permeant phosphopeptide mimetic of Niban: transduction domain … conjugated to the region surrounding serine 602 of Niban]
endothelial function (percent relaxation to carbachol) after acidosis (normal saline) injury: improved; also recorded: restores
